Experimental data as given in ChEMBL document CHEMBL5303573, “Mapping human microbiome drug metabolism by gut bacteria and their genes” (Nature, 2019).

Key:
[1] = The drug is tested on Parabacteroides merdae strain: ATCC43184 for biotransformation. The drug concentrations were measured before and after a 12-h incubation by liquid-chromatography-coupled mass spectrometry (LC–MS); conditions: 2 µM
[2] = limosilactobacillus reuteri cf48-3a, 12 h, 2 µM
Description: The drug is tested on Lactobacillus reuteri CF48-3A strain: BEI HM-102 for biotransformation. The drug concentrations were measured before and after a 12-h incubation by liquid-chromatography-coupled mass spectrometry (LC–MS)

[3] = The drug is tested on Providencia rettgeri strain: DSM1131 for biotransformation. The drug concentrations were measured before and after a 12-h incubation by liquid-chromatography-coupled mass spectrometry (LC–MS); type: ADME; design: dose 2 uM, timepoint 0 vs 12 hours; conditions: 2 µM
[4] = The drug is tested on Bacteroides vulgatus strain: ATCC8482 for biotransformation. The drug concentrations were measured before and after a 12-h incubation by liquid-chromatography-coupled mass spectrometry (LC–MS); conditions: phocaeicola vulgatus, 2 µM
[5] = bacteroides stercoris, 12 h, 2 µM
Description: The drug is tested on Bacteroides stercoris strain: ATCC43183 for biotransformation. The drug concentrations were measured before and after a 12-h incubation by liquid-chromatography-coupled mass spectrometry (LC–MS)

[6] = The drug is tested on Bifidobacterium breve strain: DSM20213 for biotransformation. The drug concentrations were measured before and after a 12-h incubation by liquid-chromatography-coupled mass spectrometry (LC–MS); conditions: 2 µM
[7] = akkermansia muciniphila, 12 h, 2 µM
Description: The drug is tested on Akkermansia muciniphila strain: ATCC BAA-835 for biotransformation. The drug concentrations were measured before and after a 12-h incubation by liquid-chromatography-coupled mass spectrometry (LC–MS)

[8] = bacteroides fragilis, 12 h, 2 µM
Description: The drug is tested on Bacteroides fragilis strain: NCTC 9343 for biotransformation. The drug concentrations were measured before and after a 12-h incubation by liquid-chromatography-coupled mass spectrometry (LC–MS)

[9] = bacteroides eggerthii, 12 h, 2 µM
Description: The drug is tested on Bacteroides eggerthii strain: DSM20697 for biotransformation. The drug concentrations were measured before and after a 12-h incubation by liquid-chromatography-coupled mass spectrometry (LC–MS)

[10] = The drug is tested on Bacteroides caccae strain: ATCC43185 for biotransformation. The drug concentrations were measured before and after a 12-h incubation by liquid-chromatography-coupled mass spectrometry (LC–MS); conditions: 2 µM
[11] = The drug is tested on Bacteroides sp. WH2 strain: WH2 for biotransformation. The drug concentrations were measured before and after a 12-h incubation by liquid-chromatography-coupled mass spectrometry (LC–MS); conditions: bacteroides sp. wh2, 12 h, 2 µM
[12] = The drug is tested on Clostridium symbiosum strain: ATCC14940 for biotransformation. The drug concentrations were measured before and after a 12-h incubation by liquid-chromatography-coupled mass spectrometry (LC–MS); conditions: 2 µM
[13] = The drug is tested on Blautia luti strain: DSM14534 for biotransformation. The drug concentrations were measured before and after a 12-h incubation by liquid-chromatography-coupled mass spectrometry (LC–MS); type: ADME; design: dose 2 uM, timepoint 0 vs 12 hours; conditions: 2 µM
[14] = The drug is tested on Clostridium sporogenes strain: ATCC15579 for biotransformation. The drug concentrations were measured before and after a 12-h incubation by liquid-chromatography-coupled mass spectrometry (LC–MS); conditions: 2 µM
[15] = parabacteroides johnsonii, 12 h, 2 µM
Description: The drug is tested on Parabacteroides johnsonii strain: DSM18315 for biotransformation. The drug concentrations were measured before and after a 12-h incubation by liquid-chromatography-coupled mass spectrometry (LC–MS)

[16] = The drug is tested on Edwardsiella tarda strain: ATCC23685 for biotransformation. The drug concentrations were measured before and after a 12-h incubation by liquid-chromatography-coupled mass spectrometry (LC–MS); conditions: 2 µM
[17] = bacteroides fragilis, 12 h, 2 µM; remark: listed apart in the source
Description: The drug is tested on Bacteroides fragilis strain: DS-208 for biotransformation. The drug concentrations were measured before and after a 12-h incubation by liquid-chromatography-coupled mass spectrometry (LC–MS)

[18] = The drug is tested on Bacteroides uniformis strain: ATCC8492 for biotransformation. The drug concentrations were measured before and after a 12-h incubation by liquid-chromatography-coupled mass spectrometry (LC–MS); conditions: 2 µM

| SMILES | Bacterial Biotransformation [1] | Bacterial Biotransformation [2] | Bacterial Biotransformation [3] | Bacterial Biotransformation [4] | Bacterial Biotransformation [5] | Bacterial Biotransformation [6] | Bacterial Biotransformation [7] | Bacterial Biotransformation [8] | Bacterial Biotransformation [9] | Bacterial Biotransformation [10] | Bacterial Biotransformation [11] | Bacterial Biotransformation [12] | Bacterial Biotransformation [13] | Bacterial Biotransformation [14] | Bacterial Biotransformation [15] | Bacterial Biotransformation [16] | Bacterial Biotransformation [17] | Bacterial Biotransformation [18] |
| --- | --- | --- | --- | --- | --- | --- | --- | --- | --- | --- | --- | --- | --- | --- | --- | --- | --- | --- |
| OCCN(CCO)c1nc(N2CCCCC2)c2nc(N(CCO)CCO)nc(N3CCCCC3)c2n1 [DIPYRIDAMOLE] | Compound metabolized | Compound NOT metabolized | Compound NOT metabolized | Compound metabolized | Compound NOT metabolized | Compound NOT metabolized | Compound NOT metabolized | Compound metabolized | Compound NOT metabolized | Compound NOT metabolized | Compound NOT metabolized | Compound NOT metabolized | Compound NOT metabolized | Compound metabolized | Compound metabolized | Compound NOT metabolized | Compound metabolized | – |
| CC(C)N(CCC(C(N)=O)(c1ccccc1)c1ccccn1)C(C)C.O=P(O)(O)O (stereo unspecified) [DISOPYRAMIDE PHOSPHATE] | Compound NOT metabolized | Compound NOT metabolized | Compound NOT metabolized | – | Compound NOT metabolized | Compound NOT metabolized | Compound NOT metabolized | – | Compound NOT metabolized | Compound NOT metabolized | Compound NOT metabolized | Compound NOT metabolized | Compound NOT metabolized | – | Compound NOT metabolized | Compound NOT metabolized | Compound NOT metabolized | – |
| CCN(CC)C(C)CN1c2ccccc2Sc2ccccc21 (stereo unspecified) [ETHOPROPAZINE] | – | – | – | Compound metabolized | Compound NOT metabolized | Compound NOT metabolized | Compound NOT metabolized | Compound NOT metabolized | Compound NOT metabolized | Compound metabolized | Compound NOT metabolized | Compound NOT metabolized | Compound NOT metabolized | Compound NOT metabolized | Compound metabolized | – | Compound NOT metabolized | Compound metabolized |
| CC(=O)OCC(CCn1cnc2cnc(N)nc21)COC(C)=O [FAMCICLOVIR] | Compound metabolized | Compound NOT metabolized | Compound NOT metabolized | Compound metabolized | Compound metabolized | Compound NOT metabolized | Compound NOT metabolized | Compound metabolized | Compound metabolized | Compound metabolized | Compound metabolized | Compound NOT metabolized | Compound NOT metabolized | Compound NOT metabolized | Compound metabolized | Compound NOT metabolized | Compound metabolized | Compound metabolized |
| CC(C)c1c(CN(C)C(C)Cc2ccccc2)n(C)n(-c2ccccc2)c1=O (stereo unspecified) [FAMPROFAZONE] | Compound metabolized | Compound metabolized | Compound NOT metabolized | Compound metabolized | Compound metabolized | Compound NOT metabolized | Compound metabolized | Compound metabolized | Compound metabolized | Compound NOT metabolized | Compound metabolized | Compound NOT metabolized | Compound NOT metabolized | Compound NOT metabolized | Compound metabolized | Compound metabolized | Compound metabolized | Compound metabolized |
| CN1CCN(C2=Nc3ccccc3Oc3ccc(Cl)cc32)CC1.O=C(O)CCC(=O)O [LOXAPINE SUCCINATE] | Compound NOT metabolized | Compound NOT metabolized | Compound NOT metabolized | Compound NOT metabolized | Compound NOT metabolized | Compound NOT metabolized | Compound NOT metabolized | Compound NOT metabolized | Compound NOT metabolized | Compound NOT metabolized | Compound NOT metabolized | Compound NOT metabolized | Compound NOT metabolized | Compound NOT metabolized | Compound NOT metabolized | – | Compound NOT metabolized | Compound NOT metabolized |
| COc1ccc2cc([C@H](C)C(=O)O)ccc2c1 [NAPROXEN] | – | Compound NOT metabolized | Compound NOT metabolized | Compound NOT metabolized | – | Compound NOT metabolized | Compound NOT metabolized | Compound NOT metabolized | Compound NOT metabolized | Compound NOT metabolized | – | Compound NOT metabolized | Compound NOT metabolized | – | – | Compound NOT metabolized | Compound NOT metabolized | Compound NOT metabolized |
| Cc1ccccc1C(OCCN(C)C)c1ccccc1.O=C(O)CC(O)(CC(=O)O)C(=O)O (stereo unspecified) [ORPHENADRINE CITRATE] | Compound NOT metabolized | Compound NOT metabolized | Compound NOT metabolized | Compound NOT metabolized | – | Compound NOT metabolized | – | – | Compound NOT metabolized | Compound NOT metabolized | Compound NOT metabolized | Compound NOT metabolized | Compound NOT metabolized | Compound NOT metabolized | Compound NOT metabolized | Compound NOT metabolized | Compound NOT metabolized | Compound NOT metabolized |
| CC(=O)CCCCn1c(=O)c2c(ncn2C)n(C)c1=O [PENTOXIFYLLINE] | Compound NOT metabolized | – | – | – | Compound NOT metabolized | Compound NOT metabolized | Compound NOT metabolized | Compound NOT metabolized | Compound NOT metabolized | Compound NOT metabolized | Compound NOT metabolized | Compound NOT metabolized | Compound NOT metabolized | Compound NOT metabolized | Compound NOT metabolized | Compound NOT metabolized | Compound NOT metabolized | Compound NOT metabolized |
| N#Cc1ccc2c(c1)N(CCCN1CCC(O)CC1)c1ccccc1S2 [PERICIAZINE] | – | – | Compound NOT metabolized | Compound metabolized | Compound NOT metabolized | Compound NOT metabolized | Compound NOT metabolized | Compound NOT metabolized | Compound NOT metabolized | Compound metabolized | Compound NOT metabolized | Compound NOT metabolized | Compound NOT metabolized | Compound NOT metabolized | Compound metabolized | Compound NOT metabolized | – | Compound NOT metabolized |
